Experimental data published in patent publication US6677310B1, “Ring-expanded nucleosides and nucleotides” (Nabi, priority 1999, dated 2004).

Experiments:
Format in all cases: cell-based, human
SNB-75 = test: SRB anti-cancer assay, CNS Cancer; conditions: SNB-75 (CNS Cancer), 48 h
SR = test: SRB anti-cancer assay, Leukemia; conditions: 48 h
HOP-62 = HOP-62 (Non-Small Cell Lung Cancer), 48 h
A498 = test: SRB anti-cancer assay, Renal Cancer; conditions: 48 h
A549/ATCC = A549/ATCC (Non-Small Cell Lung Cancer), 48 h
OVCAR-8 = test: SRB anti-cancer assay, Ovarian Cancer; conditions: OVCAR-8 (Ovarian Cancer), 48 h
UACC-62 = test: SRB anti-cancer assay, Melanoma; conditions: UACC-62 (Melanoma), 48 h
NCI/ADR-RES = test: SRB anti-cancer assay, Breast Cancer; conditions: 48 h
SK-OV-3 = test: SRB anti-cancer assay, Ovarian Cancer; conditions: SK-OV-3 (Ovarian Cancer), 48 h
DU-145 = test: SRB anti-cancer assay, Prostate Cancer; conditions: DU-145 (Prostate Cancer), 48 h
CAKI-1 = test: SRB anti-cancer assay, Renal Cancer; conditions: CAKI-1 (Renal Cancer), 48 h
ACHN = test: SRB anti-cancer assay, Renal Cancer; conditions: 48 h
UACC-257 = test: SRB anti-cancer assay, Melanoma; conditions: UACC-257 (Melanoma), 48 h
NCI-H460 = NCI-H460 (Non-Small Cell Lung Cancer), 48 h
COLO 205 = test: SRB anti-cancer assay, Colon Cancer; conditions: COLO 205 (Colon Cancer), 48 h
MDA-N = test: SRB anti-cancer assay, Breast Cancer; conditions: 48 h
OVCAR-3 = test: SRB anti-cancer assay, Ovarian Cancer; conditions: OVCAR-3 (Ovarian Cancer), 48 h
CCRF-CEM = test: SRB anti-cancer assay, Leukemia; conditions: 48 h
MALME-3M = test: SRB anti-cancer assay, Melanoma; conditions: MALME-3M (Melanoma), 48 h
UO-31 = test: SRB anti-cancer assay, Renal Cancer; conditions: UO-31 (Renal Cancer), 48 h
786-0 = test: SRB anti-cancer assay, Renal Cancer; conditions: 786-0 (Renal Cancer), 48 h
OVCAR-4 = test: SRB anti-cancer assay, Ovarian Cancer; conditions: OVCAR-4 (Ovarian Cancer), 48 h
SF-268 = test: SRB anti-cancer assay, CNS Cancer; conditions: SF-268 (CNS Cancer), 48 h
RPMI-8226 = test: SRB anti-cancer assay, Leukemia; conditions: RPMI-8226 (Leukemia), 48 h
SW-620 = test: SRB anti-cancer assay, Colon Cancer; conditions: SW-620 (Colon Cancer), 48 h
HCC-2998 = test: SRB anti-cancer assay, Colon Cancer; conditions: HCC-2998 (Colon Cancer), 48 h
SN12C = test: SRB anti-cancer assay, Renal Cancer; conditions: 48 h
SK-MEL-28 = test: SRB anti-cancer assay, Melanoma; conditions: SK-MEL-28 (Melanoma), 48 h
M14 = test: SRB anti-cancer assay, Melanoma; conditions: 48 h
HCT-15 = test: SRB anti-cancer assay, Colon Cancer; conditions: HCT-15 (Colon Cancer), 48 h
[1] = read-out: LC50 (the source's name)

N=c1nc(N)c2ncn([C@@H]3O[C@H](COC(=O)c4ccccc4)[C@@H](OC(=O)c4ccccc4)[C@H]3OC(=O)c3ccccc3)c2c(N)n1 [4,8-Diamino-6H-6-imino-1(2′,3′,5′-tri-O-benzoyl-β-D-ribofuranosyl)imidazo[4,5-e][1,3]diazepine]
GI50 (SNB-75): 12.3 µM | LC50 (concentration killing 50% of cells) (SNB-75): 50.4 µM | TGI (SNB-75): 24.9 µM | GI50 (SR): 4.27 µM | LC50 (concentration killing 50% of cells) (SR): > 100 µM | TGI (SR): >100 µM | GI50 (HOP-62): 7.64 µM | LC50 (concentration for 50% net cell kill) (HOP-62): 55.6 µM | TGI (HOP-62): 22.7 µM | GI50 (A498): 20 µM | TGI (A498): 37.8 µM | CC50 (A498; [1]): 71.8 µM | GI50 (A549/ATCC): 6.44 µM | TGI (A549/ATCC): 30 µM | CC50 (A549/ATCC; [1]): > 100 µM | GI50 (OVCAR-8): 4.34 µM | LC50 (50% lethal concentration) (OVCAR-8): > 100 µM | TGI (OVCAR-8): 22.5 µM | GI50 (UACC-62): 15.6 µM | TGI (UACC-62): 33.4 µM | CC50 (UACC-62; [1]): 71.5 µM | GI50 (NCI/ADR-RES): 13.9 µM | TGI (NCI/ADR-RES): 31.5 µM | CC50 (NCI/ADR-RES; [1]): 71.4 µM | GI50 (SK-OV-3): 16.3 µM | TGI (SK-OV-3): 30.5 µM | CC50 (SK-OV-3; [1]): 57 µM | GI50 (DU-145): 8.79 µM | TGI (DU-145): 21.8 µM | CC50 (DU-145; [1]): 49.1 µM | GI50 (CAKI-1): 12.1 µM | TGI (CAKI-1): 26.8 µM | CC50 (CAKI-1; [1]): 59.4 µM | GI50 (ACHN): 10.9 µM | TGI (ACHN): 23.5 µM | CC50 (ACHN; [1]): 50.7 µM | GI50 (UACC-257): 4.51 µM | TGI (UACC-257): 18.3 µM | CC50 (UACC-257; [1]): 73.5 µM | GI50 (NCI-H460): 2.52 µM | TGI (NCI-H460): 8.42 µM | CC50 (NCI-H460; [1]): 34.7 µM | GI50 (COLO 205): 1.49 µM | LC50 (COLO 205): 5.55 µM | TGI (COLO 205): 2.87 µM | GI50 (MDA-N): 5.88 µM | TGI (MDA-N): 21.7 µM | CC50 (MDA-N; [1]): 58.6 µM | GI50 (OVCAR-3): 10.9 µM | TGI (OVCAR-3): 23 µM | CC50 (OVCAR-3; [1]): 48.7 µM | GI50 (CCRF-CEM): 0.125 µM | TGI (CCRF-CEM): 1.84 µM | CC50 (CCRF-CEM; [1]): 6.4 µM | GI50 (MALME-3M): 3.04 µM | LC50 (MALME-3M): 33.8 µM | TGI (MALME-3M): 8.07 µM | GI50 (UO-31): 6.4 µM | TGI (UO-31): 20.6 µM | CC50 (UO-31; [1]): 51.1 µM | GI50 (786-0): 15.5 µM | TGI (786-0): 35.6 µM | CC50 (786-0; [1]): 81.5 µM | GI50 (OVCAR-4): 13.8 µM | TGI (OVCAR-4): 28 µM | CC50 (OVCAR-4; [1]): 57 µM | GI50 (SF-268): 13.2 µM | TGI (SF-268): 31.3 µM | CC50 (SF-268; [1]): 74.2 µM | GI50 (RPMI-8226): 2.53 µM | TGI (RPMI-8226): 7.42 µM | CC50 (RPMI-8226; [1]): > 100 µM | GI50 (SW-620): 5.14 µM | TGI (SW-620): 29.5 µM | CC50 (SW-620; [1]): > 100 µM | GI50 (HCC-2998): 3.18 µM | TGI (HCC-2998): 6.41 µM | CC50 (HCC-2998; [1]): 19.2 µM | GI50 (SN12C): 6.44 µM | TGI (SN12C): 39.4 µM | CC50 (SN12C; [1]): > 100 µM | GI50 (SK-MEL-28): 10.4 µM | LC50 (SK-MEL-28): 65.8 µM | TGI (SK-MEL-28): 26.2 µM | GI50 (M14): 1.91 µM | TGI (M14): 3.54 µM | CC50 (M14; [1]): 6.54 µM | GI50 (HCT-15): 5.77 µM | TGI (HCT-15): 19.5 µM | CC50 (HCT-15; [1]): 50.8 µM
